From patent US8865913B2, “Crystalline forms and processes for their preparation” (BIAL-Portela & C.A., S.A, priority 2010, dated 2014)

Key:
Type in all cases: physicochemical
[1] = Moisture sorption analysis (VTI SGA-100, 5 to 95% RH); conditions: for hysteresis upon desorption: decreasing relative humidity; for hysteresis upon desorption / weight loss between ~95% and ~5% RH: desorption; for weight loss between ~95% and ~5% RH: ~95% to ~5% RH; for weight gain between ~5% and ~75% RH: ~5% to ~75% RH; for weight gain between ~75% and ~95% RH: ~75% to ~95% RH
Procedure: 9. Moisture Sorption Analysis
Moisture sorption/desorption data were collected on a VTI SGA-100 Vapor Sorption Analyzer. NaCl and PVP were used as calibration standards. Samples were not dried prior to analysis. Sorption and desorption data were collected over a range from 5 to 95% RH at 10% RH increments under a nitrogen purge. The equilibrium criterion used for analysis was less than 0.0100% weight change in 5 minutes with a maximum equilibration time of 3 hours. Data were not corrected for the initial moisture content of the samples.

[2] = Aqueous vapor stress experiments
Procedure: d. Aqueous Vapor Stress Experiments
Samples of starting material were exposed to ˜85% and ˜97% relative humidity at ambient temperature and ˜75% relative humidity at ˜40° C. for a specified duration.

[3] = Organic vapor stress experiments
Procedure: e. Organic Vapor Stress Experiments
Samples of starting material were exposed to vapors of a specified organic solvent for a given amount of time by placing open vials with solids tested into 20 mL vials containing solvent. Organic vapor stress experiments were conducted at ambient temperature.

[4] = Heat stress experiments of amorphous material; conditions: sample no. 3
Description: i. Heat Stress Experiments
Samples of amorphous material were placed in heating ovens at temperature set below or above the glass transition, or were agitated on a shaker block at elevated temperature for a given duration.

[5] = Slow cooling of the melt experiment; conditions: 77° C., SC to RT; sample no. 3
Description: j. Slow Cooling of the Melt Experiment
Samples of amorphous material were heated on a hot plate at temperature above the glass transition. The sample was then allowed to slow cool to ambient by turning the heating device off.

[6] = Thermogravimetric analysis (TGA); conditions: sample no. 79
Procedure: 4. Thermogravimetric Analysis (TGA)
TG analyses were performed using a TA Instruments 2950 and Q5000 thermogravimetric analyzer. Temperature calibration was performed using nickel and Alumel™. Each sample was placed in an aluminum pan and inserted into the TG furnace. The furnace was heated under a nitrogen purge.
The method code for the thermogram (shown by the list of Figures in the “Brief Description of the Figures” section above) is an abbreviation for the start and end temperature as well as the heating rate; e.g., 25-350-10 means “from 25° C. to 350° C., at 10° C./min”.

[7] = Correlated thermogravimetric-infrared analysis (TG-IR); conditions: sample no. 79
Procedure: 5. Correlated Thermogravimetric—Infrared Analysis (TG-IR)
Thermogravimetric infrared (TG-IR) analysis was performed on a TA Instruments thermogravimetric (TG) analyzer model 2050 interfaced to a Magna-IR 560® Fourier transform infrared (FT-IR) spectrophotometer (Thermo Nicolet) equipped with an Ever-Glo mid/far IR source, a potassium bromide (KBr) beamsplitter, and a mercury cadmium telluride (MCT-A) detector. The FT-IR wavelength verification was performed using polystyrene, and the TG calibration standards were nickel and Alumel™. The sample was placed in a platinum sample pan, and the pan was inserted into the TG furnace. The TG instrument was started first, immediately followed by the FT-IR instrument. The TG instrument was operated under a flow of helium at 90 and 10 cc/min. for the purge and balance, respectively. The furnace was heated under […] at a rate of 20° C./minute to a final temperature of 250° C. IR spectra were collected approximately every 32 seconds for approximately 13 minutes. Each IR spectrum represents 32 co-added scans collected at a spectral resolution of 4 cm^−1. Volatiles were identified from a search of the High Resolution Nicolet Vapor Phase spectral library.

[8] = X-ray powder diffraction (XRPD)
Procedure: 3. X-ray Powder Diffraction (XRPD)
Selected XRPD patterns were collected with an Inel XRG-3000 diffractometer. An incident beam of Cu Kα radiation was produced using a fine-focus tube and a parabolically graded multilayer mirror. Prior to the analysis, a silicon standard (NIST SRM 640c) was analyzed to verify the Si 111 peak position. A specimen of the sample was packed into a thin-walled glass capillary, and a beam-stop was used to minimize the background from air. Diffraction patterns were collected in transmission geometry using Windif v. 6.6 software and a curved position-sensitive Equinox detector with a […] of 120°.
Selected XRPD patterns were collected using a Bruker D8 DISCOVER diffractometer and Bruker's General Area-Detector Diffraction System (GADDS, v. 4.1.20). An incident microbeam of Cu Kα radiation was produced using a long, fine-focus tube (40 kV, 40 mA), a parabolically graded multilayer mirror, and a 0.5 mm double-pinhole collimator. Prior to the analysis, a silicon standard (NIST SRM 640c) was analyzed to verify the Si 111 peak position. […]
XRPD patterns for microplate samples were collected using a Bruker D8 DISCOVER diffractometer and Bruker's General Area-Detector Diffraction System (GADDS, v. 4.1.20). […] Prior to the analysis, a silicon standard (NIST SRM 640c) was analyzed to verify the Si 111 peak position. […]

[9] = sorption, listed as Sample No. 2
[10] = sorption, listed as amorphous compound 2

Fc1cc(F)c2c(c1)C[C@@H](n1c(CCNCc3ccccc3)c[nH]c1=S)CO2 [Amorphous, 1-[(3R)-6,8-difluoro-3,4-dihydro-2H-1-benzopyran-3-yl]-1,3-dihydro-5-[2-[(phenylmethyl)amino]ethyl]-2H-Imidazole-2-thione]
moisture retained upon desorption ([1]; desorption between ~85% and ~15% RH): 3.6-5.8 wt %
hysteresis upon desorption ([1]; listed as Sample No. 2): large hysteresis
hysteresis upon desorption ([1]; listed as amorphous compound 2): hysteresis over a range of more than 50% RH
weight loss between ~95% and ~5% RH ([1]; listed as Sample No. 2): ~8.6 wt %
weight loss between ~95% and ~5% RH ([1]; listed as amorphous compound 2): around 8.6 wt %
hygroscopicity ([1]; moisture sorption, amorphous material): significant hygroscopicity (a material that exhibits ≧2.0 wt % water uptake over a specified RH range)
weight gain upon equilibration at ~5% RH ([1]; moisture sorption, listed as Sample No. 2): ~0.1 wt %
weight gain upon equilibration at ~5% RH ([1]; moisture sorption, listed as amorphous compound 2): around 0.08 wt %
weight gain between ~5% and ~75% RH [1, 9]: approximately 1.2 wt %
weight gain between ~5% and ~75% RH [1, 10]: around 1.2 wt %
total water uptake between ~5% and ~95% RH ([1]; sorption, ~5% to ~95% RH, listed as Sample No. 2): ~9.9 wt %
weight gain between ~75% and ~95% RH [1, 9]: ~8.7 wt %
weight gain between ~75% and ~95% RH [1, 10]: around 8.7 wt %
XRPD result after aqueous vapor stress ([2]; 75% RH, 40° C., 1 day, starting material sample no. 3): Disordered, Form A
XRPD result after aqueous vapor stress ([2]; 85% RH, 3 days, starting material sample no. 14): No peaks
XRPD result after aqueous vapor stress ([2]; 97% RH, RT, 6 days, starting material sample no. 3): Amorphous/Form A mixture
XRPD result after organic vapor stress ([3]; Acetone, 1 day, starting material sample no. 2): Form A
XRPD result after organic vapor stress ([3]; CHCl3, 1 day, starting material sample no. 2): Form A
XRPD result after organic vapor stress ([3]; EtOAc, 1 day, starting material sample no. 2): Form B
XRPD result after organic vapor stress ([3]; IPE, 2 days, starting material sample no. 3): Form A
XRPD result after heat stress ([4]; 36° C., 1 day, heating with agitation): Disordered, Form A
XRPD result after heat stress ([4]; 40° C., 3 hrs): Amorphous/Form A mixture
XRPD result after heat stress ([4]; 50° C., 3 hrs): Amorphous/Form A mixture
XRPD result after heat stress ([4]; 60° C., 3 hrs): Disordered, Form A
XRPD result after heat stress ([4]; 80° C., 3 hrs): Form A^c
XRPD result after heat stress ([4]; 80° C., 1 day): Form A^c
XRPD result after cooling from the melt [5]: Amorphous/Form A mixture

Fc1cc(F)c2c(c1)C[C@@H](n1c(CCNCc3ccccc3)c[nH]c1=S)CO2 [Form B, 1-[(3R)-6,8-difluoro-3,4-dihydro-2H-1-benzopyran-3-yl]-1,3-dihydro-5-[2-[(phenylmethyl)amino]ethyl]-2H-imidazole-2-thione]
TGA sharp weight loss (onset) [6]: Sharp weight loss at ~254 °C (onset)
TGA weight loss ([6]; between ~138° C. and ~190° C.): ~4.7 wt % loss between ~138 °C and ~190 °C
TG-IR (IR) identification of volatile [7]: (IR): Consistent with loss of ethyl acetate.
XRPD result ([8]; sample no. 48 (crystallized from tetrahydrofuran/ethyl acetate)): Crystalline consistent with Form B of compound 2
XRPD result ([8]; sample no. 79 (organic vapor stress of amorphous material in ethyl acetate)): Crystalline consistent with Form B of compound 2
